For data set [1], the target named is T1, GST fusion human Keap1 (amino acid residue: 325-624) protein (Homo sapiens, UniProt Q14145).
T1 construct: GST fusion human Keap1 (amino acid residue: 325-624) protein; purchased Protein tech Ag0779
The experiment in a line: Keap1-Nrf2 binding inhibition test (fluorescence polarization). To be noted: compound concentration of 100 nM; read-out: inhibition rate. Summed up: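 Fluorescence polarization with FITC-labelled Nrf2 peptide (FITC-Ahx-LDEETGEFL-NH2) and GST-human Keap1 (325-624) in 20 mM Tris pH 7.5, 150 mM NaCl, 0.05% Tween 20, 5 mM DTT, BSA; 30 min at room temperature, ex 482/em 530 nm. Percent inhibition at 100 nM compound, Keap1-free wells = 100%.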

In data set [2] the test system is NQO1. In words: NQO1 enzyme induction test (in vitro) in Hepa1c1c7 cells. It counts as cell-based. The following applies: Mus musculus, Hepa-1c1c7, 48 h, concentration to elevate the NQO1 activity by 1.5 times, about 48 hours, read-out: EC150. Summed up:
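Mouse Hepa1c1c7 cells treated about 48 h with compound (0.1% DMSO final), then lysed. NQO1 activity read as MTT reduction at 540 nm with menadione substrate, 5 min at room temperature, and corrected for cell number by CellTiter-Glo. EC150 is the concentration raising NQO1 activity 1.5-fold.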

Data set [3] deals with NQO1. In words: NQO1 expression induction test in mouse kidney (single administration). It counts as in vivo. The following applies: Mus musculus, po, 6 h, Dose 30 mg/kg, BALB/c mouse kidney, 6 hours after administration, ratio to control group. Summed up:
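Female BALB/c mice received a single oral dose of compound in 0.5% methylcellulose, with untreated mice as controls. Six hours later, left-kidney NQO1 mRNA was measured by SYBR real-time RT-PCR normalised to GAPDH. Induction was expressed as the ratio of mean treated to mean control expression.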

Data set [4] is described as follows: Metabolism test using human liver microsome fractions. It counts as in vitro ADME. The following applies: human liver microsomes, test compound 10 μmol/L, NADPH and UDP-glucuronic acid, 37° C. Summed up:
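Human or monkey liver microsomes (1 mg protein) with NADPH-regenerating system plus UDP-glucuronic acid/UGT mix, 37 °C; compound at 10 μmol/L final. Samples at 0–30 min quenched in acetonitrile, UV-HPLC; elimination rate (pmol/min/mg-P) from linear slope of residual amount over time.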

T1 sequence (Q14145 325-624): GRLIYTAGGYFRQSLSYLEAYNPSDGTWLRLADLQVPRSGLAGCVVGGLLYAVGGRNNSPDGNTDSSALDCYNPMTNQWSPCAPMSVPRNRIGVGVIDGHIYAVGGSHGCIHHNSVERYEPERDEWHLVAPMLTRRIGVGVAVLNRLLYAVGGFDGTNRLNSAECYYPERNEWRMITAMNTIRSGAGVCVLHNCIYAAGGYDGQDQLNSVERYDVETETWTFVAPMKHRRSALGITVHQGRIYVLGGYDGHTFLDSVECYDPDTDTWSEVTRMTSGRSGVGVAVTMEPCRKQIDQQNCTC

In general, inhibition refers to the share of the control response that was lost under treatment. In general, fold induction refers to the ratio of treated to control signal. Take `CC[C@@H]1CN(Cc2cc(C(c3ccc4c(nnn4C)c3C)C(C)(C)C(=O)O)ccc2C)Cc2cc3ccccc3nc2O1` (stereo partly drawn) [Example 9-(b), 3-(1,4-dimethyl-1H-benzo[d][1,2,3]triazol-5-yl)-3-(3-(((R)-2-ethyl-2,3-dihydro-[1,4]oxazepino[7,6-b]quinolin-4 (5H)-yl)methyl)-4-methylphenyl)-2,2-dimethylpropanoic Acid]: in data set [1], the inhibition at 0.1 µM is no less than 50%. The EC (1.5-fold NQO1 activity) in data set [2] fell in the range of 0.0005 to 0.005 µM. The fold induction at 30 mg/kg in data set [3] lay in the range of 3 to 6. Also, the Human metabolic rate result in data set [4] is given as “D (200≤metabolic rate<250 pmol/min/me protein)”.

For `CC[C@@H]1CN(Cc2cc(C(c3ccc4c(nnn4C)c3C)C(C)(C)C(=O)O)ccc2C)Cc2nc3ccccc3cc2O1` (stereo partly drawn) [Example 10-(b), 3-(1,4-dimethyl-1H-benzo[d][1,2,3]triazol-5-yl)-3-(3-(((R)-2-ethyl-2,3-dihydro-[1,4]oxazepino[6,7-b]quinolin-4 (5H)-yl)methyl)-4-methylphenyl)-2,2-dimethylpropanoic Acid], in data set [1], the inhibition at 0.1 µM was no less than 50%. In addition, in data set [2], the EC (1.5-fold NQO1 activity) was in the range of 0.0005 to 0.005 µM. Further, the fold induction at 30 mg/kg in data set [3] was greater than 6. Besides, in data set [4], the Human metabolic rate result is given as “C (150≤metabolic rate<200 pmol/min/mg protein)”.

With `CC[C@@H]1CN(Cc2cc(C(c3ccc4c(nnn4C)c3C)C(C)(C)C(=O)O)ccc2C)Cc2cc3cccnc3cc2O1` (stereo partly drawn) [Example 11-(b), 3-(1,4-dimethyl-1H-benzo[d][1,2,3]triazol-5-yl)-3-(3-(((R)-2-ethyl-2,3-dihydro-[1,4]oxazepino[6,7-g]quinolin-4(5H)-yl)methyl)-4-methylphenyl)-2,2-dimethylpropanoic Acid], the inhibition at 0.1 µM in data set [1] was no less than 50%. Further, the EC (1.5-fold NQO1 activity) in data set [2] lay within 0.0005 to 0.005 µM. For the same compound, the fold induction at 30 mg/kg in data set [3] was greater than 6. For the same compound, the Human metabolic rate result in data set [4] was “D (200≤metabolic rate<250 pmol/min/me protein)”.

With `CC[C@@H]1CN(Cc2cc(C(c3ccc4c(nnn4C)c3C)C(C)(C)C(=O)O)ccc2C)Cc2cc3ncccc3cc2O1` (stereo partly drawn) [Example 12-(b), 3-(1,4-dimethyl-1H-benzo[d][1,2,3]triazol-5-yl)-3-(3-(((R)-2-ethyl-2,3-dihydro-[1,4]oxazepino[7,6-g]quinolin-4 (5H)-yl)methyl)-4-methylphenyl)-2,2-dimethylpropanoic Acid], in data set [1], the inhibition at 0.1 µM was no less than 50%. Further, the EC (1.5-fold NQO1 activity) in data set [2] was in the range of 0.0005 to 0.005 µM. Further, the fold induction at 30 mg/kg in data set [3] was greater than 6. Besides, the Human metabolic rate entry in data set [4] is recorded as “D (200≤metabolic rate<250 pmol/min/me protein)”.

Turning to `CC[C@@H]1CN(Cc2cc(C(c3ccc4c(nnn4C)c3C)C(C)(C)C(=O)O)ccc2C)Cc2cc3cccc(C)c3nc2O1` (stereo partly drawn) [Example 13-(b), 3-(1,4-dimethyl-1H-benzo[d][1,2,3]triazol-5-yl)-3-(3-(((R)-2-ethyl-10-methyl-2,3-dihydro-[1,4]oxazepino[7,6-b]quinolin-4 (5H)-yl)methyl)-4-methylphenyl)-2,2-dimethylpropanoic Acid], the inhibition at 0.1 µM in data set [1] is no less than 50%. Further, the EC (1.5-fold NQO1 activity) in data set [2] was 0.0005 to 0.005 µM. The fold induction at 30 mg/kg in data set [3] is 3 to 6. Moreover, the Human metabolic rate result in data set [4] is on record as “E (metabolic rate≥250 pmol/min/mg protein)”.

Turning to `CC[C@@H]1CN(Cc2cc(C(c3ccc4c(nnn4C)c3C)C(C)(C)C(=O)O)ccc2C)Cc2cc3cn[nH]c3cc2O1` (stereo partly drawn) [Example 15-(b), 3-(1,4-dimethyl-1H-benzo[d][1,2,3]triazol-5-yl)-3-(3-(((R)-8-ethyl-1,5,7,8-tetrahydro-6H-[1,4]oxazepino[6,7-f]indazol-6-yl)methyl)-4-methylphenyl)-2,2-dimethylpropanoic Acid], in data set [1], the inhibition at 0.1 µM is no less than 50%. In data set [2], the EC (1.5-fold NQO1 activity) was 0.0005 to 0.005 µM. The fold induction at 30 mg/kg in data set [3] was 3 to 6. The Human metabolic rate result in data set [4] is “E (metabolic rate≥250 pmol/min/mg protein)”.

Regarding `CC[C@@H]1CN(Cc2cc(C(c3ccc4c(nnn4C)c3C)C(C)(C)C(=O)O)ccc2C)Cc2c(ccc3ccccc23)O1` (stereo partly drawn) [Example 16-(b), 3-(1,4-dimethyl-1H-benzo[d][1,2,3]triazol-5-yl)-3-(3-(((R)-4-ethyl-3,4-dihydronaphtho[1,2-f][1,4]oxazepin-2(1H)-yl)methyl)-4-methylphenyl)-2,2-dimethylpropanoic Acid], the inhibition at 0.1 µM in data set [1] was no less than 50%. In addition, the EC (1.5-fold NQO1 activity) in data set [2] lay in the range of 0.05 to 0.5 µM. Further, the fold induction at 30 mg/kg in data set [3] is no more than 3. The Human metabolic rate entry in data set [4] is “E (metabolic rate≥250 pmol/min/mg protein)”.

Turning to `CC[C@@H]1CN(Cc2cc(C(c3ccc4c(nnn4C)c3C)C(C)(C)C(=O)O)ccc2C)Cc2c(ccc3cccnc23)O1` (stereo partly drawn) [Example 17-(b), 3-(1,4-dimethyl-1H-benzo[d][1,2,3]triazol-5-yl)-3-(3-(((R)-8-ethyl-8,9-dihydro-[1,4]oxazepino[7,6-h]quinolin-10 (11H)-yl)methyl)-4-methylphenyl)-2,2-dimethylpropanoic Acid], the inhibition at 0.1 µM in data set [1] was no less than 50%. In addition, in data set [2], the EC (1.5-fold NQO1 activity) was in the range of 0.005 to 0.05 µM. Further, the fold induction at 30 mg/kg in data set [3] was 3 to 6. In addition, the Human metabolic rate result in data set [4] is given as “E (metabolic rate≥250 pmol/min/mg protein)”.

For the compound `CC[C@@H]1CN(Cc2cc(C(c3ccc4c(nnn4C)c3C)C(C)(C)C(=O)O)ccc2C)Cc2c(ccc3ncccc23)O1` (stereo partly drawn) [Example 18-(b), 3-(1,4-dimethyl-1H-benzo[d][1,2,3]triazol-5-yl)-3-(3-(((R)-4-ethyl-3,4-dihydro-[1,4]oxazepino[6,7-f]quinolin-2(1H)-yl)methyl)-4-methylphenyl)-2,2-dimethylpropanoic Acid], in data set [1], the inhibition at 0.1 µM was no less than 50%. The EC (1.5-fold NQO1 activity) in data set [2] was 0.005 to 0.05 µM. The fold induction at 30 mg/kg in data set [3] lay in the range of 3 to 6. In data set [4], the Human metabolic rate entry is listed as “E (metabolic rate≥250 pmol/min/mg protein)”.

On to `CC[C@@H]1CN(Cc2cc(C(c3ccc4c(nnn4C)c3C)C(C)(C)C(=O)O)ccc2C)Cc2c(cnc3ccccc23)O1` (stereo partly drawn) [Example 19-(b), 3-(1,4-dimethyl-1H-benzo[d][1,2,3]triazol-5-yl)-3-(3-(((R)-4-ethyl-3,4-dihydro-[1,4]oxazepino[7,6-c]quinolin-2(1H)-yl)methyl)-4-methylphenyl)-2,2-dimethylpropanoic Acid], for which, in data set [1], the inhibition at 0.1 µM was no less than 50%. Also, the EC (1.5-fold NQO1 activity) in data set [2] was in the range of 0.0005 to 0.005 µM. The fold induction at 30 mg/kg in data set [3] is no more than 3. Besides, in data set [4], the Human metabolic rate result is listed as “E (metabolic rate≥250 pmol/min/mg protein)”.

In the case of `CC[C@@H]1CN(Cc2cc(C(c3ccc4c(nnn4C)c3C)C(C)(C)C(=O)O)ccc2C)Cc2c(ccc3cnn(C)c23)O1` (stereo partly drawn) [Example 21-(b), 3-(1,4-dimethyl-1H-benzo[d][1,2, 3)triazol-5-yl)-3-(3-(((R)-7-ethyl-1-methyl-1,7,8,10-tetrahydro-9H-(1,4]oxazepino[7,6-g]indazol-9-yl)methyl)-4-methylphenyl)-2,2-dimethylpropanoic Acid], the inhibition at 0.1 µM in data set [1] was no less than 50%. In data set [2], the EC (1.5-fold NQO1 activity) is 0.05 to 0.5 µM. Further, in data set [3], the fold induction at 30 mg/kg is no more than 3. Moreover, the Human metabolic rate entry in data set [4] is listed as “D (200≤metabolic rate<250 pmol/min/me protein)”.

For the compound `CC[C@@H]1CN(Cc2cc(C(c3ccc4c(nnn4C)c3C)C(C)(C)C(=O)O)ccc2C)Cc2c(ccc3cn(C)nc23)O1` (stereo partly drawn) [Example 22-(b), 3-(1,4-dimethyl-1H-benzo[d][1,2, 3)triazol-5-yl)-3-(3-(((R)-7-ethyl-2-methyl-2,7,8,10-tetrahydro-9H-(1,4]oxazepino[7,6-g]indazol-9-yl)methyl)-4-methylphenyl)-2,2-dimethylpropanoic Acid], the inhibition at 0.1 µM in data set [1] was no less than 50%. Further, the EC (1.5-fold NQO1 activity) in data set [2] is 0.0005 to 0.005 µM. Also, the fold induction at 30 mg/kg in data set [3] was greater than 6. For the same compound, the Human metabolic rate result in data set [4] was “B (100≤metabolic rate<150 pmol/min/mg protein)”.

Turning to `CC[C@@H]1CN(Cc2cc(C(c3ccc4c(nnn4C)c3C)C(C)(C)C(=O)O)ccc2C)Cc2ncc3ccccc3c2O1` (stereo partly drawn) [Example 25-(b), 3-(1,4-dimethyl-1H-benzo[d][1,2,3]triazol-5-yl)-3-(3-(((R)-2-ethyl-2,3-dihydro-[1,4]oxazepino[6,7-c]isoquinolin-4(5H)-yl)methyl)-4-methylphenyl)-2,2-dimethylpropanoic Acid], the inhibition at 0.1 µM in data set [1] was no less than 50%. Besides, the EC (1.5-fold NQO1 activity) in data set [2] was 0.0005 to 0.005 µM. For the same compound, in data set [3], the fold induction at 30 mg/kg was greater than 6. Also, the Human metabolic rate result in data set [4] is reported as “D (200≤metabolic rate<250 pmol/min/me protein)”.

In the case of `CC[C@@H]1CN(Cc2cc(C(c3ccc4c(nnn4C)c3C)C(C)(C)C(=O)O)ccc2C)Cc2cnc3ccccc3c2O1` (stereo partly drawn) [Example 26-(b), 3-(1,4-dimethyl-1H-benzo[d][1,2,3]triazol-5-yl)-3-(3-(((R)-2-ethyl-2,3-dihydro-[1,4]oxazepino[6,7-c]quinolin-4(5H)-yl)methyl)-4-methylphenyl)-2,2-dimethylpropanoic Acid], the inhibition at 0.1 µM in data set [1] is no less than 50%. Further, the EC (1.5-fold NQO1 activity) in data set [2] is 0.0005 to 0.005 µM. For the same compound, the fold induction at 30 mg/kg in data set [3] was greater than 6. The Human metabolic rate entry in data set [4] is on record as “E (metabolic rate≥250 pmol/min/mg protein)”.

(Values after US12559504B2, “Benzotriazole derivative” (UBE CORPORATION, priority 2019, dated 2026).)
